We go through nine molecules from patent EP4471049A1 (Zealand Pharma A/S, priority 2023, dated 2024).

Like-named read-outs stand apart in the source and are kept apart here. *1 amine or outer side, *2 acyl side, *3 side chain or, on linkers, in order; H or OH if unused. Where a SMILES comes first, the peptide text is derived from it. Bridges are numbered along the chain shown (N, C = ends). [ ]: non-standard residue; d: D form. 2Nal = N[C@@H](Cc1ccc2ccccc2c1)C(=O)O; AEF = NCCOc1ccc(C[C@H](N)C(=O)O)cc1; X1 = O=C(Cc1ccc(CN[*:1])cc1)[*:2]; 3Pal = N[C@@H](Cc1cccnc1)C(=O)O; αMeL = CC(C)C[C@](C)(N)C(=O)O; Dab = NCC[C@H](N)C(=O)O; Sar = CNCC(=O)O

Data set [1] has as its target IL-23 mediated STAT3 signalling (Homo sapiens, UniProt Q5VWK5). Put plainly: Functional inhibition of IL-23 mediated STAT3 signalling (phospho-STAT3 Tyr705 MSD, DB cells). The data set is classed as cell-based. On the procedure:
The ability of compounds to inhibit IL-23 mediated signalling was determined in the human-derived DB cell line (CRL-2289) (hereafter referred to as DB cells), which endogenously expresses the human IL-23R and human IL-12R β1 subunits. Upon binding of IL-23, the IL-23R forms a heterodimer signalling complex together with IL-12R β1, which through the JAK2/STAT3 pathway promotes phosphorylation of STAT3 to form phospho-STAT3. In the assay, the functional antagonism of IL-23 mediated phospho-STAT3 formation in DB cells by the compound is quantified using reagents capable of measuring the phosphorylation state of Tyr705 of STAT3 in the form of a phospho-STAT3 (Tyr705) MSD (Meso Scale Discovery) kit.
[…]. For compounds tested in this assay, the response was normalized relative to control values to calculate the IC50 and maximal inhibitory response from a concentration response curve of the compound in presence of a fixed concentration of human IL-23.
The assay procedure was as follows. DB cells were maintained in growth medium consisting of RPMI-1640 [Invitrogen 61870-010] supplemented with 10% V/V Foetal Bovine Serum (FBS) [(heat inactivated), Invitrogen 10270-106], and 1% V/V Penicillin-Streptomycin (Pen-Strep) Solution [Invitrogen 15140]. On the day of assay, cells were resuspended in Assay buffer consisting of RPMI-1640 [Invitrogen 61870-010] supplemented with 0.1 % w/V BSA [Sigma-Aldrich A9430] to a density of 7.5x10^6 cells/mL. Compounds to be tested for inhibition of hIL-23 mediated signalling were serially diluted in Assay buffer to 3X the final concentration. A solution of hIL-23 corresponding to 3X the EC80 of hIL-23 (1.7 nM) was also prepared in Assay buffer. To initiate the assay, 20 µL of DB cell suspension (corresponding to 150.000 cells/well) was added to the wells of a 96-well V-bottom Polypropylene plate [Corning 3363] followed by addition of 3X 20 µL of the diluted test compounds to separate wells. Following preincubation of the DB cells with inhibitor for 15 min in a cell incubator (37 °C, 5% CO2), 20 µL of the prepared 3X the EC80 of hIL-23 solution was added to each well and incubated for 90 min in a cell incubator (37 °C, 5% CO2). For some wells buffer only or IL-23 only corresponding to the EC80 was added to obtain readouts needed for normalization. To terminate the assay, the plate was spun at 1000 G for 5 min to pellet cells, the supernatant removed using an 8-channel manual pipette, and then added 50 µL/well Complete Lysis Buffer from the MSD STAT3 kit (Cat# K150SVD, Mesoscale) to the cell pellet. To completely lyse cells to release phospho-STAT3 for detection, the plate was shaken for 10 min at room temperature (500 rpm) sealed with aluminium foil and placed at -80 °C for a minimum of 15 min. Detection of the phospho-STAT3 level in the cell lysate from the individual wells was determined using the MSD STAT3 kit (Cat# K150SVD, Mesoscale) and read on a Meso QuickPlex SQ 120 plate reader (Mesoscale).
For data analysis raw data counts from the Meso QuickPlex SQ 120 plate reader were normalized relative to the response by the EC80 of hIL-23 alone (no compound added) and the buffer level. Compound potency (IC50) and maximal inhibitory response (% inhibition) were estimated by computer-aided curve fitting using a 4-parameter logistic (4PL) non-linear model. […]. Typically compounds with a low IC50 are desired. Typically compounds capable of completely inhibiting the IL23-induced response are desired. […]. Table 3-2: hIL-23 (pSTAT3) antagonist IC50 and % inhibition data

Data set [2] is described as follows: Peptide stability in simulated intestinal fluid (SIF). The data set is classed as in vitro ADME. The following applies: for remaining at 4 h, 10 µM / remaining at 1 h, 10 µM: pig, simulated intestinal fluid (SIF) with porcine pancreatin. The method, boiled down: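 Peptides were incubated at 37 °C with gentle shaking in pH 6.8 potassium phosphate SIF containing porcine pancreatin (10 g/L). Supernatants were analysed by LC-HRMS. Percent remaining at each timepoint, including 4 h, was calculated relative to time zero from absolute peak areas.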

[3] abbreviates: Example 2 (Tables 2-1 to 2-4), read-out: IC50 (pSTAT3).
The mark [4] stands for this setting: pH 6.8, Example 2 (Tables 2-1 to 2-4), intact peptide remaining after 4 h, read-out: SIF (% after 4 h).
The mark [5] stands for this setting: 37 °C, pH 6.8, porcine pancreatin 10 g/L, 10 µM.
Setting [6] is: 4 h, 37 °C, pH 6.8, porcine pancreatin 10 g/L, 10 µM.

Chain of IL-23 mediated STAT3 signalling (Q5VWK5 24-629 limits assumed): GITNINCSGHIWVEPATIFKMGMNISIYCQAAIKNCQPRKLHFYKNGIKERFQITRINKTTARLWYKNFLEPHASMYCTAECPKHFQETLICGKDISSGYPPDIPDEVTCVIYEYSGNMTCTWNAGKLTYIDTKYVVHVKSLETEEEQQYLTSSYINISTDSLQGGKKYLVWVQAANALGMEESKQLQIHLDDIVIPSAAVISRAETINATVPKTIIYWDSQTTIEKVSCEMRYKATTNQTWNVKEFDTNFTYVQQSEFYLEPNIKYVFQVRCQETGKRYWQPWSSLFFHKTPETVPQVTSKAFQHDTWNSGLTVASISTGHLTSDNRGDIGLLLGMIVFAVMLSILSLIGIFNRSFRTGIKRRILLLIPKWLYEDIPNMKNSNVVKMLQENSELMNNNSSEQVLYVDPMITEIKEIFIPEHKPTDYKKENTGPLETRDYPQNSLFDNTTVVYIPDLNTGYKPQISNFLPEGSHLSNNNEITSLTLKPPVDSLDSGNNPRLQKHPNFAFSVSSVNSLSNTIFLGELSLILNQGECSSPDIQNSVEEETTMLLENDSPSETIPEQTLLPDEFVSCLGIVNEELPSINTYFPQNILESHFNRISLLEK

For orientation: IC50 means the concentration at which inhibition is half-maximal. With `CC(C)C[C@]1(C)NC(=O)[C@H](Cc2ccc3ccccc3c2)NC(=O)[C@H](Cc2ccc(OCCN)cc2)NC(=O)[C@@H]2CCNC(=O)CC[C@H](NC(=O)[C@H](CO)NC(=O)Cc3ccc(cc3)CNC(=O)CC[C@@H](C(=O)N[C@@H](CCN)C(=O)N[C@@](C)(Cc3cccnc3)C(N)=O)NC1=O)C(=O)N[C@@H](Cc1c[nH]c3ccccc13)C(=O)N[C@@H](CCC(N)=O)C(=O)N2` [Compound 3, [4-Aminomethyl-phenylacetyl](1c)*SE(2c)WQ[Dab](2c)[Y(2-aminoethoxy)][2-Nal][2-Me-Leu]E(1c)[Dab][2-Me-3-(3-Pyridyl)-Ala]-[NH2]], the IC50 in data set [1] (setting [3]) worked out at 1.7 nM. Also, in data set [2] (setting [4]), the remaining at 4 h, 10 µM was 109%. The remaining at 1 h, 10 µM in data set [2] (setting [5]) was 115%.

Regarding `CC(C)C[C@]1(C)NC(=O)[C@H](Cc2ccc3ccccc3c2)NC(=O)[C@H](Cc2ccc(OCCN)cc2)NC(=O)[C@@H]2CCNC(=O)CC[C@H](NC(=O)[C@H](CO)NC(=O)Cc3ccc(cc3)CNC(=O)CC[C@@H](C(=O)N[C@@H](CCN)C(=O)N(C)[C@@H](Cc3cccnc3)C(N)=O)NC1=O)C(=O)N[C@@H](Cc1c[nH]c3ccccc13)C(=O)N[C@@H](CCC(N)=O)C(=O)N2` [Compound 4, [4-Aminomethyl-phenylacetyl](1c)*SE(2c)WQ[Dab](2c)[Y(2-aminoethoxy)][2-Nal][2-Me-Leu]E(1c)[Dab][N-Me-3-(3-Pyridyl)-Ala]-[NH2]], the half-maximal inhibitory concentration (IC50) in data set [1] (setting [3]) turned out to be 6.5 nM. The remaining at 4 h, 10 µM in data set [2] (setting [4]) is 89%.

As for `CC(C)C[C@]1(C)NC(=O)[C@H](Cc2ccc3ccccc3c2)NC(=O)[C@H](Cc2ccc(OCCN)cc2)NC(=O)[C@@H]2CCNC(=O)CC[C@H](NC(=O)[C@H](CO)NC(=O)Cc3ccc(cc3)CNC(=O)CC[C@@H](C(=O)N[C@@H](CCN)C(=O)N[C@H](Cc3cccnc3)C(N)=O)NC1=O)C(=O)N[C@@H](Cc1c[nH]c3ccccc13)C(=O)N[C@@H](CCC(N)=O)C(=O)N2` [Compound 5, [4-Aminomethyl-phenylacetyl](1c)*SE(2c)WQ[Dab](2c)[Y(2-aminoethoxy)][2-Nal][2-Me-Leu]E(1c)[Dab][{d}3-(3-Pyridyl)-Ala]-[NH2]], in data set [1] (setting [3]), the IC50 came to 2.1 nM. In addition, in data set [2] (setting [6]), the “SIF (% remaining 4 h)” value is 41%. In addition, the remaining at 4 h, 10 µM in data set [2] (setting [4]) was 41%.

On to `CC(C)C[C@]1(C)NC(=O)[C@H](Cc2ccc3ccccc3c2)NC(=O)[C@H](Cc2ccc(OCCN)cc2)NC(=O)[C@@H]2CCNC(=O)CC[C@H](NC(=O)[C@H](CO)NC(=O)Cc3ccc(cc3)CNC(=O)CC[C@@H](C(=O)N[C@@H](CCN)C(=O)NCCCCc3cccnc3)NC1=O)C(=O)N[C@@H](Cc1c[nH]c3ccccc13)C(=O)N[C@@H](CCC(N)=O)C(=O)N2` [Compound 6, [4-Aminomethyl-phenylacetyl](1c)*SE(2c)WQ[Dab](2c)[Y(2-aminoethoxy)][2-Nal][2-Me-Leu]E(1c)[Dab]-[NH-(4-(pyridin-3-yl)butanyl)]], for which, in data set [1] (setting [3]), the concentration for half-maximal inhibition (IC50) was determined as 3.2 nM. For the same molecule, the “SIF (% remaining 4 h)” value in data set [2] (setting [6]) is listed as 73%. The remaining at 4 h, 10 µM in data set [2] (setting [4]) is 73%.

As to `CC(C)C[C@]1(C)NC(=O)[C@H](Cc2ccc3ccccc3c2)NC(=O)[C@H](Cc2ccc(OCCN)cc2)NC(=O)[C@@H]2CCNC(=O)CC[C@H](NC(=O)[C@H](CO)NC(=O)Cc3ccc(cc3)CNC(=O)CC[C@@H](C(=O)N[C@@H](CCN)C(=O)NCCc3cccnc3)NC1=O)C(=O)N[C@@H](Cc1c[nH]c3ccccc13)C(=O)N[C@@H](CCC(N)=O)C(=O)N2` [Compound 7, [4-Aminomethyl-phenylacetyl](1c)*SE(2c)WQ[Dab](2c)[Y(2-aminoethoxy)][2-Nal][2-Me-Leu]E(1c)[Dab]-[NH-(2-(pyridin-3-yl)ethyl)]], the IC50 in data set [1] (setting [3]) was 0.13 nM. In addition, in data set [2] (setting [6]), the “SIF (% remaining 4 h)” value is listed as 130%. For the same molecule, in data set [2] (Example 2 (Tables 2-1 to 2-4), intact peptide remaining after 4 h), the “SIF (% after 4 h)” value was 130%.

With `CNC(=O)[C@H](Cc1cccnc1)NC(=O)[C@H](CCN)NC(=O)[C@@H]1CCC(=O)NCc2ccc(cc2)CC(=O)N[C@@H](CO)C(=O)N[C@H]2CCC(=O)NCC[C@H](NC(=O)[C@H](CCC(N)=O)NC(=O)[C@H](Cc3c[nH]c4ccccc34)NC2=O)C(=O)N[C@@H](Cc2ccc(OCCN)cc2)C(=O)N[C@@H](Cc2ccc3ccccc3c2)C(=O)N[C@@](C)(CC(C)C)C(=O)N1` [Compound 8, [4-Aminomethyl-phenylacetyl](1c)*SE(2c)WQ[Dab](2c)[Y(2-aminoethoxy)][2-Nal][2-Me-Leu]E(1c)[Dab][3-(3-Pyridyl)-Ala]-[NHMe]], the IC50 in data set [1] (setting [3]) was 0.053 nM. Also, the remaining at 4 h, 10 µM in data set [2] (setting [4]) was 105%.

As to `CC(C)C[C@]1(C)NC(=O)[C@H](Cc2ccc3ccccc3c2)NC(=O)[C@H](Cc2ccc(OCCN)cc2)NC(=O)[C@@H]2CCNC(=O)CC[C@H](NC(=O)[C@H](CO)NC(=O)Cc3ccc(cc3)CNC(=O)CC[C@@H](C(=O)N[C@@H](CCN)C(=O)N[C@@H](Cc3cccnc3)C(=O)N(C)CC(N)=O)NC1=O)C(=O)N[C@@H](Cc1c[nH]c3ccccc13)C(=O)N[C@@H](CCC(N)=O)C(=O)N2` [Compound 9, [4-Aminomethyl-phenylacetyl](1c)*SE(2c)WQ[Dab](2c)[Y(2-aminoethoxy)][2-Nal][2-Me-Leu]E(1c)[Dab][3-(3-Pyridyl)-Ala][Sar]-[NH2]] ([X1]SEWQ[Dab][AEF][2Nal][αMeL]E[Dab][3Pal][Sar]-NH2; lactam 3-6, N-10), the IC50 in data set [1] (setting [3]) turned out to be 0.025 nM. In addition, the remaining at 4 h, 10 µM in data set [2] (setting [4]) is 105%.

As for `CC(C)C[C@]1(C)NC(=O)[C@H](Cc2ccc3ccccc3c2)NC(=O)[C@H](Cc2ccc(OCCN)cc2)NC(=O)[C@@H]2CCNC(=O)CC[C@H](NC(=O)[C@H](CO)NC(=O)Cc3ccc(cc3)CNC(=O)CC[C@@H](C(=O)N[C@@H](CCN)C(=O)N[C@@H](Cc3cccnc3)C(=O)N[C@H](Cc3c[nH]cn3)C(N)=O)NC1=O)C(=O)N[C@@H](Cc1c[nH]c3ccccc13)C(=O)N[C@@H](CCC(N)=O)C(=O)N2` [Compound 10, [4-Aminomethyl-phenylacetyl](1c)*SE(2c)WQ[Dab](2c)[Y(2-aminoethoxy)][2-Nal][2-Me-Leu]E(1c)[Dab][3-(3-Pyridyl)-Ala][{d}H]-[NH2]] ([X1]SEWQ[Dab][AEF][2Nal][αMeL]E[Dab][3Pal][dH]-NH2; lactam 3-6, N-10), the IC50 in data set [1] (setting [3]) turned out to be 0.038 nM. Moreover, the “SIF (% remaining 4 h)” value in data set [2] (setting [6]) is given as 11%. Moreover, the remaining at 4 h, 10 µM in data set [2] (setting [4]) is 11%. In addition, the remaining at 1 h, 10 µM in data set [2] (setting [5]) is 34%.

Regarding `CC(C)C[C@]1(C)NC(=O)[C@H](Cc2ccc3ccccc3c2)NC(=O)[C@H](Cc2ccc(OCCN)cc2)NC(=O)[C@@H]2CCNC(=O)CC[C@H](NC(=O)[C@H](CO)NC(=O)Cc3ccc(cc3)CNC(=O)CC[C@@H](C(=O)N[C@@H](CCN)C(=O)N[C@@H](Cc3c[nH]cn3)C(=O)N[C@@H](Cc3cccnc3)C(N)=O)NC1=O)C(=O)N[C@@H](Cc1c[nH]c3ccccc13)C(=O)N[C@@H](CCC(N)=O)C(=O)N2` [Compound 12, [4-Aminomethyl-phenylacetyl](1c)*SE(2c)WQ[Dab](2c)[Y(2-aminoethoxy)][2-Nal][2-Me-Leu]E(1c)[Dab]H[3-(3-Pyridyl)-Ala]-[NH2]] ([X1]SEWQ[Dab][AEF][2Nal][αMeL]E[Dab]H[3Pal]-NH2; lactam 3-6, N-10), the IC50 in data set [1] (Table 3-2, EC80 of hIL-23, read-out: hIL-23 (pSTAT3) antagonist IC50) came out at 3.5 nM. In data set [2] (setting [5]), the remaining at 1 h, 10 µM is 60%. The remaining at 4 h, 10 µM in data set [2] (4 h, 37 °C, pH 6.8, porcine pancreatin 10 g/L, 10 µM, read-out: SIF (% remaining 4 h)) is 2%.
